Measured values reported in patent US4801534A, “Water soluble zanthylium derivative substrates” (Coulter Electronics, Inc., priority 1987, dated 1989).

Experiments:
Type in all cases: biochemical
Thrombin = biological target: T1, Thrombin (Homo sapiens, UniProt P00734); assay: Thrombin reaction rates, spectrophotometric, change in absorbance at 496 nm; details: 37° C., 0.10M ACES pH 7.0, 0.05M KCl
T1 construct: Thrombin reaction rates were determined with the water soluble substrate
Procedure: Identical test conditions were used including temperature 37° C., volume 1.0 ml., and buffer 0.10M ACES pH 7.0, with 0.05M KCl. Since sarcosyl (Sar) and carbobenzyloxy (Cbz) have similar molecular weights, both were tested at 100 ug/ml.

coagulation factor VIII = assay: Fluorescent coagulation factor VIII assay based on APTT, substrate detects thrombin generation
Procedure: (§1) Fluorescent assays for coagulation factors VIII and IX, based on the activated partial thromboplastin time (APTT) assay, were performed with the substrate (Sar-Pro-Arg)2 -Rhodamine 110. The synthetic substrate was used to detect thrombin generation, substituting for the natural substrate fibrinogen present in both human and animal plasmas. Standard calibration curves were constructed with normal plasma, Thromboscreen™ from Curtin Matheson Scientific, which was used to correct factor VIII and IX deficient plasmas, George King Biomedical. The APTT reagent contained purified soybean phospholipids and ellagic acid activator, Dade Diagnostics. […] A Turner model 430 spectrofluorometer with a temperature controlled sample cell holder (37° C.) was used to make the kinetic fluorescent measurements. Excitation and emission wavelengths were set at 468 nm and 525 nm, respectively. Glass test tubes were used to perform the plasma activations and disposable acrylic cuvettes, Centaur Sciences, Inc., were used for the fluorescent measurements.
(§2) A 100 uL aliquot of 0.85% saline or normal plasma diluted in saline was added to a test tube followed by the sequential addition of 100 uL of factor deficient plasma and 100 uL of the APTT reagent. The test tube was incubated in a heating block at 37° C. for 2 minutes, at which time 100 uL of 25 mM CaCl2 was added and the incubation was continued for an additional 30 seconds. The incubation mixture was transferred to a cuvette containing 2.0 mL of the substrate solution prewarmed to 37° C. and the fluorescent rate measured. Linear dose response curves were obtained for factors VIII and IX between 1% and 100% of normal: […]

coagulation factor IX = assay: Fluorescent coagulation factor IX assay based on APTT, substrate detects thrombin generation
Procedure: as §1, §2

[1] = biological target: T2, Purified human alpha-thrombin (Homo sapiens, UniProt P00734); assay: Spectrophotometric assay of thrombin with (Pyro-Pro-Arg)2-Rhodamine 110; details: substrate 78 ug/mL, 37° C., pH 8.0
T2 construct: Purified human alpha-thrombin; purchased Dr. John Fenton, N.Y. State Dept. of Health
Procedure: Dose response curves were determined for three different concentrations of thrombin by measuring absorbance increases at 468 nm and 496 nm. Working thrombin dilutions were prepared as follows: Purified human alpha-thrombin, Dr. John Fenton, N.Y. State Dept. of Health, was diluted to 1.04 U/mL, 0.52 U/mL and 0.25 U/mL in 0.05M HEPES, pH 8.0, with 0.25M NaCl and maintained at 4° C. The substrate, (Pyro-Pro-Arg)2 -Rhodamine 110, was dissolved to 78 ug/mL in 0.20M HEPES, pH 8.0, with 0.3M KCl. Disposable acrylic cuvettes with 1 cm light path, Centaur Sciences, Inc. were used. A one mL aliquot of substrate was pipetted into a cuvette and warmed to 37° C. in a heating block. A one mL sample of a working thrombin dilution was added to the cuvette. After mixing the thrombin and substrate, absorbances at 468 nm and 496 nm were determined for 30 seconds with a Hewlett-Packard Model 8450A spectrophotometer. The increased absorbances over the timed intervals were: […]

[2] = substrate 80 micromolar, 15% ethanol for the Cbz substrate
[3] = Factor level 1 % normal, plasma dilution 1:250
[4] = Factor level 10 % normal, plasma dilution 1:25
[5] = Factor level 100 % normal, plasma dilution 1:2.5
[6] = Factor level <1 % normal (no plasma dilution), ex 468 nm, em 525 nm, quinine sulfate = 1.0

Substance	Change In Absorbance, 496 nm/Unit Thrombin/mL (Thrombin; [2])	Change In Absorbance, 496 nm/Unit Thrombin/mL (Thrombin; substrate 800 micromolar)	Relative Fluorescence, Factor VIII (coagulation factor VIII; [3])	Relative Fluorescence, Factor VIII (coagulation factor VIII; [4])	Relative Fluorescence, Factor VIII (coagulation factor VIII; [5])	Relative Fluorescence, Factor VIII (coagulation factor VIII; [6])	Relative Fluorescence, Factor IX (coagulation factor IX; [3])	Relative Fluorescence, Factor IX (coagulation factor IX; [4])	Relative Fluorescence, Factor IX (coagulation factor IX; [5])	Relative Fluorescence, Factor IX (coagulation factor IX; [6])	Absorbance, 0-30 seconds, 468 nm ([1]; Thrombin 0.26 U/mL)	Absorbance, 0-30 seconds, 496 nm ([1]; Thrombin 0.26 U/mL)	Absorbance, 0-30 seconds, 468 nm ([1]; Thrombin 0.52 U/mL)	Absorbance, 0-30 seconds, 496 nm ([1]; Thrombin 0.52 U/mL)	Absorbance, 0-30 seconds, 468 nm ([1]; Thrombin 1.04 U/mL)	Absorbance, 0-30 seconds, 496 nm ([1]; Thrombin 1.04 U/mL)
(H-Sar-Pro-Arg)2 -Rhodamine 110 [(Sar-Pro-Arg)2 -Rhodamine 110]	1.700	2.872	0.121	0.148	0.333	0.119	0.127	0.154	0.333	0.121						
(Cbz-L-Pro-Arg)2 -Rhodamine 110 [(Cbz-Pro-Arg)2 -Rhodamine 110, reference compound]	0.122															
(H-L-Pyro-Pro-Arg)2 -Rhodamine 110 [(Pyro-Pro-Arg)2 -Rhodamine 110]											0.0461	0.0462	0.0912	0.0860	0.1766	0.1671
